Consider 42 compounds from patent US10858335B2 (Rigel Pharmaceuticals, Inc., priority 2014, dated 2020).

In the test the test system is GDF8 signaling (p-SMAD-3 (Ser423/425)). The test is described as follows: AlphaScreen SureFire SMAD3 (p-Ser423/425) assay, GDF8-stimulated cells (GDF pSMAD). It counts as cell-based. The conditions noted are these: Mus musculus, MPC-11, MPC11; GDF8-stimulated; p-SMAD3 AlphaScreen; read-out: GDF pSMAD (MPC11) (inhibition of GDF8 signaling).

Each structure is given as a SMILES string. pIC50: −log10 of the molar value.

In the case of `COc1ccnc2ccc(-c3cccnc3-c3cc(Cl)c(F)cc3F)cc12` [compound 842, 6-(2-(5-Chloro-2,4-difluorophenyl)pyridin-3-yl)-4-methoxyquinoline], the pIC50 is 4.76.

On to `NC(=O)c1cnc2ccc(-c3cccnc3-c3ccc(F)c(Cl)c3)cn12` [compound 843, 6-(2-(3-Chloro-4-fluorophenyl)pyridin-3-yl)imidazo[1,2-a]pyridine-3-carboxamide], for which the pIC50 was 7.67.

Turning to `Fc1ccc(-c2ncccc2-c2ccc3ncc(-c4ncn[nH]4)n3c2)cc1Cl` [compound 844, 6-(2-(3-Chloro-4-fluorophenyl)pyridin-3-yl)-3-(1H-1,2,4-triazol-5-yl)imidazo[1,2-a]pyridine], the pIC50 was 7.49.

For the compound `Fc1ccc(-c2ncccc2-c2ccc3ncc(-c4ncc[nH]4)n3c2)cc1Cl` [compound 845, 6-(2-(3-Chloro-4-fluorophenyl)pyridin-3-yl)-3-(1H-imidazol-2-yl)imidazo[1,2-a]pyridine], the pIC50 is 7.23.

In the case of `Cc1cc(-c2ncccc2-c2ccc3nccc(C(N)=O)c3c2)ccc1F` [compound 846, 6-(2-(4-Fluoro-3-methylphenyl)pyridin-3-yl)quinoline-4-carboxamide], the pIC50 is 4.85.

`NC(=O)c1ccnc2ccc(-c3cccnc3-c3cccc(Cl)c3)cc12` [compound 848, 6-(2-(3-Chlorophenyl)pyridin-3-yl)quinoline-4-carboxamide]: the pIC50 was 4.95.

In the case of `NC(=O)c1ccnc2ccc(-c3cccnc3-c3cc(Cl)ccc3F)cc12` [compound 849, 6-(2-(5-Chloro-2-fluorophenyl)pyridin-3-yl)quinoline-4-carboxamide], the pIC50 is 4.74.

On to `NC(=O)c1ccnc2ccc(-c3cccnc3-c3cc(Cl)c(F)cc3F)cc12` [compound 850, 6-(2-(5-Chloro-2,4-difluorophenyl)pyridin-3-yl)quinoline-4-carboxamide], for which the pIC50 is 4.68.

Take `Fc1ccc(-c2ncccc2-c2ccc3ncc(-c4cc[nH]n4)n3c2)cc1Cl` [compound 852, 6-(2-(3-Chloro-4-fluorophenyl)pyridin-3-yl)-3-(1H-pyrazol-3-yl)imidazo[1,2-a]pyridine]: the pIC50 is 6.68.

For `Cn1ccc(-c2cnc3ccc(-c4cccnc4-c4ccc(F)c(Cl)c4)cn23)n1` [compound 853, 6-(2-(3-Chloro-4-fluorophenyl)pyridin-3-yl)-3-(1-methyl-1H-pyrazol-3-yl)imidazo[1,2-a]pyridine], the pIC50 was 6.05.

As to `COc1cnc(-c2ccc(F)c(C)c2)c(-c2ccn3ncnc3c2)c1` [compound 854, 7-(2-(4-Fluoro-3-methylphenyl)-5-methoxypyridin-3-yl)-[1,2,4]triazolo[1,5-a]pyridine], the pIC50 is 5.33.

Regarding `COc1cnc(-c2cccc(Cl)c2)c(-c2ccn3ncnc3c2)c1` [compound 855, 7-(2-(3-Chlorophenyl)-5-methoxypyridin-3-yl)-[1,2,4]triazolo[1,5-a]pyridine], the pIC50 is 5.46.

On to `COc1cnc(-c2ccc(F)c(Cl)c2)c(-c2ccn3ncnc3c2)c1` [compound 856, 7-(2-(3-Chloro-4-fluorophenyl)-5-methoxypyridin-3-yl)-[1,2,4]triazolo[1,5-a]pyridine], for which the pIC50 is 5.25.

As to `COc1cnc(-c2cc(Cl)c(F)cc2F)c(-c2ccn3ncnc3c2)c1` [compound 857, 7-(2-(5-Chloro-2,4-difluorophenyl)-5-methoxypyridin-3-yl)-[1,2,4]triazolo[1,5-a]pyridine], the pIC50 is 5.73.

With `COc1cnc(-c2cc(Cl)ccc2F)c(-c2ccn3ncnc3c2)c1` [compound 858, 7-(2-(5-Chloro-2-fluorophenyl)-5-methoxypyridin-3-yl)-[1,2,4]triazolo[1,5-a]pyridine], the pIC50 was 5.63.

`COc1cnc(-c2cccc(C(F)(F)F)c2)c(-c2ccn3ncnc3c2)c1` [compound 859]: the pIC50 was 5.43.

For the compound `Fc1cnc(-c2ccc(F)c(Cl)c2)c(-c2ccn3ncnc3c2)c1` [compound 860, 7-(2-(3-Chloro-4-fluorophenyl)-5-fluoropyridin-3-yl)-[1,2,4]triazolo[1,5-a]pyridine], the pIC50 was 5.00.

Take `Fc1cnc(-c2cc(Cl)c(F)cc2F)c(-c2ccn3ncnc3c2)c1` [compound 861, 7-(2-(5-Chloro-2,4-difluorophenyl)-5-fluoropyridin-3-yl)-[1,2,4]triazolo[1,5-a]pyridine]: the pIC50 is 5.40.

Take `Fc1cnc(-c2cc(Cl)ccc2F)c(-c2ccn3ncnc3c2)c1` [compound 862, 7-(2-(5-Chloro-2-fluorophenyl)-5-fluoropyridin-3-yl)-[l 1,2,4]triazolo[1,5-a]pyridine]: the pIC50 is 5.74.

On to `Fc1cnc(-c2cccc(C(F)(F)F)c2)c(-c2ccn3ncnc3c2)c1` [compound 863, 7-(2-(3-((Difluoro-13-methyl)-12-fluoranyl)phenyl)-5-fluoropyridin-3-yl)-[1,2,4]triazolo[1,5-a]pyridine], for which the pIC50 was 5.23.

On to `Cc1cnc(-c2ccc(F)c(Cl)c2)c(-c2ccn3ncnc3c2)c1` [compound 864, 7-(2-(3-Chloro-4-fluorophenyl)-5-methylpyridin-3-yl)-[1,2,4]triazolo[1,5-a]pyridine], for which the pIC50 was 5.81.

Regarding `Cc1cnc(-c2cc(Cl)c(F)cc2F)c(-c2ccn3ncnc3c2)c1` [compound 865, 7-(2-(5-Chloro-2,4-difluorophenyl)-5-methylpyridin-3-yl)-[l 1,2,4]triazolo[1,5-a]pyridine], the pIC50 is 6.22.

With `Cc1cnc(-c2cc(Cl)ccc2F)c(-c2ccn3ncnc3c2)c1` [compound 866, 7-(2-(5-Chloro-2-fluorophenyl)-5-methylpyridin-3-yl)-[1,2,4]triazolo[1,5-a]pyridine], the pIC50 was 6.60.

Turning to `Cc1cnc(-c2cccc(C(F)(F)F)c2)c(-c2ccn3ncnc3c2)c1` [compound 867, 7-(2-(3-((Difluoro-13-methyl)-12-fluoranyl)phenyl)-5-methylpyridin-3-yl)-[1,2,4]triazolo[1,5-a]pyridine], the pIC50 is 6.12.

`Cc1cnc(-c2cccc(Cl)c2)c(-c2ccn3ncnc3c2)c1` [compound 868, 7-(2-(3-Chlorophenyl)-5-methylpyridin-3-yl)-[1,2,4]triazolo[1,5-a]pyridine]: the pIC50 is 6.39.

With `Clc1ccc(Cl)c(-c2ncccc2-c2ccc3ncsc3c2)c1` [compound 869, 6-(2-(2,5-Dichlorophenyl)pyridin-3-yl)benzo[d]thiazole], the pIC50 is 6.16.

As for `Cn1cnc2ccc(-c3cccnc3-c3cc(Cl)ccc3Cl)cc21` [compound 870, 6-(2-(2,5-Dichlorophenyl)pyridin-3-yl)-1-methyl-1H-benzo[d]imidazole], the pIC50 is 6.25.

As to `Clc1ccc(Cl)c(-c2ncccc2-c2ccc3nc[nH]c3c2)c1` [compound 871, 6-(2-(2,5-Dichlorophenyl)pyridin-3-yl)-1H-benzo[d]imidazole], the pIC50 was 5.74.

In the case of `Clc1ccc(Cl)c(-c2ncccc2-c2ccc3nccn3c2)c1` [compound 872, 6-(2-(2,5-Dichlorophenyl)pyridin-3-yl)imidazo[1,2-a]pyridine], the pIC50 is 6.11.

For the compound `Clc1ccc(Cl)c(-c2ncccc2-c2ccn3ncnc3c2)c1` [compound 873, 7-(2-(2,5-Dichlorophenyl)pyridin-3-yl)-[1,2,4]triazolo[1,5-a]pyridine], the pIC50 was 5.92.

With `Fc1cc(F)c(-c2ncccc2-c2ccn3ncnc3c2)cc1F` [compound 874, 7-(2-(2,4,5-Trifluorophenyl)pyridin-3-yl)-[1,2,4]triazolo[1,5-a]pyridine], the pIC50 is 5.19.

For the compound `Fc1cc(-c2ncccc2-c2ccn3ncnc3c2)cc(F)c1F` [compound 875, 7-(2-(3,4,5-Trifluorophenyl)pyridin-3-yl)-[1,2,4]triazolo[1,5-a]pyridine], the pIC50 was 4.91.

Regarding `Cc1ccc(Cl)c(-c2ncccc2-c2ccn3ncnc3c2)c1` [compound 876, 7-(2-(2-Chloro-5-methylphenyl)pyridin-3-yl)-[1,2,4]triazolo[1,5-a]pyridine], the pIC50 is 5.62.

`Cc1ccc(C(F)(F)F)cc1-c1ncccc1-c1ccn2ncnc2c1` [compound 878, 7-(2-(2-Methyl-5-(trifluoromethyl)phenyl)pyridin-3-yl)-[1,2,4]triazolo[1,5-a]pyridine]: the pIC50 was 4.99.

`FC(F)(F)c1cccc(-c2ncccc2-c2ccn3ncnc3c2)c1` [compound 879, 7-(2-(3-(Trifluoromethyl)phenyl)pyridin-3-yl)-[1,2,4]triazolo[1,5-a]pyridine]: the pIC50 is 5.83.

`COc1cccc(-c2ncccc2-c2ccn3ncnc3c2)c1` [compound 880, 7-(2-(3-Methoxyphenyl)pyridin-3-yl)-[1,2,4]triazolo[1,5-a]pyridine]: the pIC50 is 6.09.

Consider `FC(F)(F)Oc1cccc(-c2ncccc2-c2ccn3ncnc3c2)c1` [compound 882, 7-(2-(3-(Trifluoromethoxy)phenyl)pyridin-3-yl)-[1,2,4]triazolo[1,5-a]pyridine], for which the pIC50 was 5.95.

On to `FC(F)Oc1cccc(-c2ncccc2-c2ccn3ncnc3c2)c1` [compound 883, 7-(2-(3-(Difluoromethoxy)phenyl)pyridin-3-yl)-[1,2,4]triazolo[1,5-a]pyridine], for which the pIC50 is 6.29.

Regarding `Fc1ccc(OC(F)(F)F)cc1-c1ncccc1-c1ccn2ncnc2c1` [compound 884, 7-(2-(2-Fluoro-5-(trifluoromethoxy)phenyl)pyridin-3-yl)-[1,2,4]triazolo[1,5-a]pyridine], the pIC50 was 6.00.

Consider `CNc1ncnc2ccc(-c3cccnc3-c3ccc(F)c(Cl)c3)cc12` [compound 886, 6-(2-(3-Chloro-4-fluorophenyl)pyridin-3-yl)-N-methylquinazolin-4-amine], for which the pIC50 was 6.60.

As to `Cn1c(=O)cnc2ccc(-c3cccnc3-c3ccc(F)c(Cl)c3)cc21` [compound 887, 7-(2-(3-Chloro-4-fluorophenyl)pyridin-3-yl)-1-methylquinoxalin-2(1H1)-one], the pIC50 was 5.76.

Regarding `Cc1cc(-c2ncccc2-c2ccc3ncc(=O)n(C)c3c2)ccc1F` [compound 888, 7-(2-(4-Fluoro-3-methylphenyl)pyridin-3-yl)-1-methylquinoxalin-2(1H)-one], the pIC50 was 5.39.
